Laboratory results reported in patent US9956197B2 (priority 2013, dated 2018).

Key:
[1] = tested on: Picrotoxin (PIC) induced clonic seizure; assay: animal or person; format: in vivo, ICR mice
[2] = tested on: ACTH-refractory infantile spasm (behavioral spasms); assay: animal or person; format: in vivo, Sprague-Dawley rats
6 Hz-induced seizure = assay: animal or person; format: in vivo, mice; details: ip
[3] = tested on: Lithium-pilocarpine induced status epilepticus; design: species or system Sprague-Dawley rats; details: in vivo
[4] = tested on: PTZ (Pentylenetetrazol) induced clonic seizure; assay: animal or person; format: in vivo, ICR mice; details: mouse, in vivo, ip

Which results are given for `C[C@H](OC(N)=O)[C@@H](O)c1ccccc1Cl` [Compound 1, 1-(2-chlorophenyl)-(S)-1-hydroxypropyl-(S)-2-carbamate]?
ED50 ([1]; Mus musculus, ip, read-out: PIC (ip) ED50): 18.2 mg/kg; PIC (ip) Peak Time ([1]; mice): 2 h; ED50 ([2]; Rattus norvegicus, ip, read-out: ACTH-refractory IS (ip) ED50): 19.8 mg/kg; ACTH-refractory IS (ip) Peak Time ([2]; rat, in vivo): 1 h; ED50 (6 Hz-induced seizure; Mus musculus, read-out: 6 Hz ED50, 44 mA): 13.7 mg/kg; 6 Hz Peak Time (6 Hz-induced seizure; mouse, in vivo): 0.25 h; Prevention (rat, ip) Peak Time [3]: 2 h; PTZ test (ip) in Mice Peak Time [4]: 2 h
